≈ marks a conversion by molar mass, not a printed value. Where two headings read alike, the source gives them in different places.
Columns and labels:
[1] = Solubility in water and in ethanol; format: physicochemical
Excerpt: The solubilities of quercetin in water and in ethanol are, by contrast, only 0.04 g/l and 15.8 g/l respectively.

[2] = compared with the other investigated hydroxyflavones, over the entire pH range; cited from earlier work

Compound | solubility ([1]; 25 °C, organic solvent or mixture) | solubility ([1]; 25 °C, water) | solubility ([1]; organic solvent or mixture, at 25° C. in ethanol, read-out: solubility in ethanol) | antioxidative action [2]
CCCCOC1(c2ccc(O)c(O)c2)Oc2cc(O)cc(O)c2C(=O)C1(O)O (stereo not shown) [2-butoxy-2-(3,4-dihydroxyphenyl)-3,3,5,7-tetrahydroxychroman-4-one] | 855 mg/mL (≈ 2180 mM) | 2.9 mg/mL (≈ 7.39 mM) |  | 
O=c1c(O)c(-c2ccc(O)c(O)c2)oc2cc(O)cc(O)c12 [quercetin, 3,3′,4′,5,7-pentahydroxyflavone] |  |  | 15.8 mg/mL (≈ 52.3 mM) | highest activity

From US7867993B2, “Preparation containing oxidized flavonoid derivatives” (Merck Patent GmbH, priority 2005, dated 2011)
